Experiment [1] has as its system H. pylori strain 26695. The experiment is described as follows: MIC determination, liquid microdilution, H. pylori. It counts as cell-based. The following applies: Helicobacter pylori, 26695, 27 h, read-out: MIC H. pylori.
In experiment [2] the test system is C. jejuni strain H840. The experiment is described as follows: MIC determination, liquid microdilution, C. jejuni. In kind it is cell-based. The following applies: Campylobacter jejuni, H840, 27 h, read-out: MIC C. jejuni.

Converted amounts (≈) assume the structure as drawn.

Turning to `O=C(Nc1ncc([N+](=O)[O-])s1)c1ccc(-c2ccccc2)s1` [Analogue 80, N-(5-Nitrothiazol-2-yl)-5-phenylthiophene-2-carboxamide], the MIC in experiment [1] turned out to be 1.5 µM (≈ 0.497 µg/mL); in experiment [2] it was 72.4 µM (≈ 24 µg/mL).

Consider `O=C(Nc1ncc([N+](=O)[O-])s1)c1cccc([N+](=O)[O-])c1O` [Analogue 34, 2-Hydroxy-3-nitro-N-(5-nitrothiazol-2-yl)benzamide], for which the MIC stood at 19.3 µM (≈ 5.99 µg/mL) in experiment [1] and 103 µM (≈ 32 µg/mL) in experiment [2].

`O=C(Nc1ncc([N+](=O)[O-])s1)c1cc(F)c(F)cc1F` [Analogue 14, 2,4,5-Trifluoro-N-(5-nitrothiazol-2-yl)benzamide]: the MIC was 0.8 µM (≈ 0.243 µg/mL) in experiment [1] and 9.9 µM (≈ 3 µg/mL) in experiment [2].

For the molecule `O=C(Nc1ncc([N+](=O)[O-])s1)c1ccc(F)cc1C(F)(F)F` [Analogue 35, 4-Fluoro-N-(5-nitrothiazol-2-yl)-2-(trifluoromethyl)benzamide], the MIC in experiment [1] worked out at 3.4 µM (≈ 1.14 µg/mL); in experiment [2], 23.9 µM (≈ 8.01 µg/mL).

Turning to `O=C(CCc1ccccc1)Nc1ncc([N+](=O)[O-])s1` [Analogue 44, N-(5-Nitrothiazol-2-yl)-3-phenylpropanamide], the MIC was found to be 21.6 µM (≈ 5.99 µg/mL) in experiment [1] and 1.8 µM (≈ 0.499 µg/mL) in experiment [2].

For the molecule `O=C(Nc1ncc([N+](=O)[O-])s1)c1ccc(-c2cccc([N+](=O)[O-])c2)o1` [Analogue 69, 5-(3-Nitrophenyl)-N-(5-nitrothiazol-2-yl)furan-2-carboxamide], the MIC worked out at 6.9 µM (≈ 2.49 µg/mL) in experiment [1] and 16.7 µM (≈ 6.02 µg/mL) in experiment [2].

As for `O=C(Nc1ncc([N+](=O)[O-])s1)c1ccc(-c2ccoc2)o1` [Analogue 70, N-(5-Nitrothiazol-2-yl)-2,3′-bifuran-5-carboxamide], the MIC in experiment [1] turned out to be 1.6 µM (≈ 0.488 µg/mL); in experiment [2] it was 13.1 µM (≈ 4 µg/mL).

Take `O=C(Nc1ncc([N+](=O)[O-])s1)c1cc(F)c(F)c(F)c1` [Analogue 13, 3,4,5-Trifluoro-N-(5-nitrothiazol-2-yl)benzamide]: the MIC in experiment [1] was determined as 1.2 µM (≈ 0.364 µg/mL); in experiment [2], 4.9 µM (≈ 1.49 µg/mL).

As for `O=C(Nc1ncc([N+](=O)[O-])s1)c1ccc(-c2cccc(Cl)c2)o1` [Analogue 66, 5-(3-Chlorophenyl)-N-(5-nitrothiazol-2-yl)furan-2-carboxamide], the MIC was 1.1 µM (≈ 0.385 µg/mL) in experiment [1] and 22.9 µM (≈ 8.01 µg/mL) in experiment [2].

Regarding `O=C(Nc1ncc([N+](=O)[O-])s1)c1ccc(F)c(F)c1` [Analogue 10, 3,4-Difluoro-N-(5-nitrothiazol-2-yl)benzamide], the values for the MIC in experiment [1] and in experiment [2] were 1.8 µM (≈ 0.513 µg/mL) and 5.3 µM (≈ 1.51 µg/mL), respectively.

For `O=C(Nc1ncc([N+](=O)[O-])s1)c1ccc(-c2ccoc2)s1` [Analogue 83, 5-(Furan-3-yl)-N-(5-nitrothiazol-2-yl)thiophene-2-carboxamide], the values for the MIC in experiment [1] and in experiment [2] were 7.8 µM (≈ 2.51 µg/mL) and 12.4 µM (≈ 3.98 µg/mL), respectively.

`COc1cccc(C(=O)Nc2ncc([N+](=O)[O-])s2)c1` [Analogue 29, 3-Methoxy-N-(5-nitrothiazol-2-yl)benzamide]: the figures for the MIC in experiment [1] and in experiment [2] were 1.3 µM (≈ 0.363 µg/mL) and 7.2 µM (≈ 2.01 µg/mL), respectively.

Take `O=C(CCCc1ccccc1)Nc1ncc([N+](=O)[O-])s1` [Analogue 45, N-(5-Nitrothiazol-2-yl)-4-phenylbutanamide]: the results for the MIC in experiment [1] and in experiment [2] were 0.3 µM (≈ 0.0874 µg/mL) and 1.3 µM (≈ 0.379 µg/mL), respectively.

With `O=C(Nc1ncc([N+](=O)[O-])s1)c1ccc(-c2cccc(Cl)c2)s1` [Analogue 81, 5-(3-Chlorophenyl)-N-(5-nitrothiazol-2-yl)thiophene-2-carboxamide], the results for the MIC in experiment [1] and in experiment [2] were 0.7 µM (≈ 0.256 µg/mL) and 5.5 µM (≈ 2.01 µg/mL), respectively.

In the case of `O=C(Nc1ncc([N+](=O)[O-])s1)c1c(F)cccc1F` [Analogue 11, 2,6-Difluoro-N-(5-nitrothiazol-2-yl)benzamide], the MIC worked out at 0.7 µM (≈ 0.2 µg/mL) in experiment [1] and 14 µM (≈ 3.99 µg/mL) in experiment [2].

As to `O=C(Nc1ncc([N+](=O)[O-])s1)c1ccccc1C(F)(F)F` [Analogue 22, N-(5-Nitrothiazol-2-yl)-2-(trifluoromethyl)benzamide], the values for the MIC in experiment [1] and in experiment [2] were 1.6 µM (≈ 0.508 µg/mL) and 18.9 µM (≈ 6 µg/mL), respectively.

For `O=C(Nc1ncc([N+](=O)[O-])s1)c1ccc(-c2ccccc2)o1` [Analogue 65, N-(5-Nitrothiazol-2-yl)-5-phenylfuran-2-carboxamide], the MIC in experiment [1] turned out to be 2.4 µM (≈ 0.757 µg/mL); in experiment [2] it was 102 µM (≈ 32 µg/mL).

For the molecule `CC1=C(C(=O)Nc2ncc([N+](=O)[O-])s2)Cc2ccccc21` [Analogue 47, 3-Methyl-N-(5-nitrothiazol-2-yl)indene-2-carboxamide], the results for the MIC in experiment [1] and in experiment [2] were 1.7 µM (≈ 0.512 µg/mL) and 26.5 µM (≈ 7.99 µg/mL), respectively.

On to `O=C(Nc1ncc([N+](=O)[O-])s1)c1ccc(-c2ccsc2)o1` [Analogue 71, N-(5-Nitrothiazol-2-yl)-5-(thiophen-3-yl)furan-2-carboxamide], for which the MIC in experiment [1] was determined as 6.2 µM (≈ 1.99 µg/mL); in experiment [2], 99.6 µM (≈ 32 µg/mL).

As to `O=C(Nc1ncc([N+](=O)[O-])s1)c1cc(C(F)(F)F)ccc1Cl` [Analogue 39, 2-Chloro-N-(5-nitrothiazol-2-yl)-5-(trifluoromethyl)benzamide], the MIC was found to be 1.1 µM (≈ 0.387 µg/mL) in experiment [1] and 17.1 µM (≈ 6.01 µg/mL) in experiment [2].

Turning to `O=C(Nc1ncc([N+](=O)[O-])s1)c1ccc(-c2cccc(F)c2)o1` [Analogue 67, 5-(3-Fluorophenyl)-N-(5-nitrothiazol-2-yl)furan-2-carboxamide], the MIC in experiment [1] was determined as 1.5 µM (≈ 0.5 µg/mL); in experiment [2], 24 µM (≈ 8 µg/mL).

`O=C(Nc1ncc([N+](=O)[O-])s1)c1c(F)cc(F)cc1F` [Analogue 12, 2,4,6-Trifluoro-N-(5-nitrothiazol-2-yl)benzamide]: the MIC in experiment [1] was determined as 4.9 µM (≈ 1.49 µg/mL); in experiment [2], 9.9 µM (≈ 3 µg/mL).

Take `CCCCCCCCCC(=O)Nc1ncc([N+](=O)[O-])s1` [Analogue 52, N-(5-Nitrothiazol-2-yl)decanamide]: the MIC in experiment [1] was 0.8 µM (≈ 0.24 µg/mL); in experiment [2] it was 107 µM (≈ 32 µg/mL).

Regarding `O=C(/C=C/c1ccc(C(F)(F)F)cc1)Nc1ncc([N+](=O)[O-])s1` [Analogue 55, (E)-N-(5-Nitrothiazol-2-yl)-3-(4-(trifluoromethyl)phenyl)acrylamide], the MIC was found to be 0.5 µM (≈ 0.172 µg/mL) in experiment [1] and 93.2 µM (≈ 32 µg/mL) in experiment [2].

As for `O=C(Nc1ncc([N+](=O)[O-])s1)c1ccc(F)c([N+](=O)[O-])c1` [Analogue 37, 4-Fluoro-3-nitro-N-(5-nitrothiazol-2-yl)benzamide], the minimal inhibitory concentration (MIC) was determined as 1.6 µM (≈ 0.5 µg/mL) in experiment [1] and 51.2 µM (≈ 16 µg/mL) in experiment [2].

With `O=C(Nc1ncc([N+](=O)[O-])s1)c1cc2ccccc2o1` [Analogue 72, N-(5-Nitrothiazol-2-yl)benzofuran-2-carboxamide], the MIC was 0.6 µM (≈ 0.174 µg/mL) in experiment [1] and 111 µM (≈ 32 µg/mL) in experiment [2].

For the molecule `CCCCCCCC(=O)Nc1ncc([N+](=O)[O-])s1` [Analogue 51, N-(5-Nitrothiazol-2-yl)octanamide], the MIC in experiment [1] came out at 1.4 µM (≈ 0.38 µg/mL); in experiment [2], 5.5 µM (≈ 1.49 µg/mL).

`O=C(Nc1ncc([N+](=O)[O-])s1)c1cc2cc([N+](=O)[O-])ccc2o1` [Analogue 73, 5-Nitro-N-(5-nitrothiazol-2-yl)benzofuran-2-carboxamide]: the MIC in experiment [1] and in experiment [2] was 4.5 µM (≈ 1.5 µg/mL) each time.

Take `O=C(Nc1ncc([N+](=O)[O-])s1)c1ccc(-c2ccsc2)s1` [Analogue 82, N-(5-Nitrothiazol-2-yl)-2,3′-bithiophene-5-carboxamide]: the figures for the MIC in experiment [1] and in experiment [2] were 3 µM (≈ 1.01 µg/mL) and 94.8 µM (≈ 32 µg/mL), respectively.

For `O=C(Nc1ncc([N+](=O)[O-])s1)c1cccc(F)c1` [Analogue 7, 3-Fluoro-N-(5-nitrothiazol-2-yl)benzamide], the minimal inhibitory concentration (MIC) in experiment [1] turned out to be 0.9 µM (≈ 0.241 µg/mL); in experiment [2], 11.2 µM (≈ 2.99 µg/mL).

The values above are taken from publication PMC3089805 (Chemmedchem, 2010).
